From patent EP4786487A1, “PEPTIDE” (Peptidream Inc, priority 2023, dated 2025)
Starred links: 1 amine or outer side, 2 acyl side, 3 side chain; linkers in the order of their positions; H or OH if unused. Positions of bridges follow the written chain, without caps; N, C: chain ends. Non-standard residues stand in square brackets, D forms with d. Residues, ends and D or L forms follow the SMILES beside them. Groups on a side chain read outwards from the residue. *: point of attachment. Phe(3-OCH2COOH) = N[C@@H](Cc1cccc(OCC(=O)O)c1)C(=O)O; Phe(4-COOH) = N[C@@H](Cc1ccc(C(=O)O)cc1)C(=O)O; Piperazinyl(4-CH2COOH) = O=C(O)CN1CCN(*)CC1; Gly(decyl) = CCCCCCCCCC[C@H](N)C(=O)O; AEF = NCCOc1ccc(C[C@H](N)C(=O)O)cc1; X1 = CCCCCCC[C@H](N[*:1])C(=O)[*:2]; NMeCha = CN[C@@H](CC1CCCCC1)C(=O)O; NMeF = CN[C@@H](Cc1ccccc1)C(=O)O; NMeE = CN[C@@H](CCC(=O)O)C(=O)O; Cha = N[C@@H](CC1CCCCC1)C(=O)O; NMeA = CN[C@@H](C)C(=O)O; CO = O=C([*:1])[*:2]; NEtG = CCNCC(=O)O; Sar = CNCC(=O)O

Tests used:
[1] = target: T1, GDF-11 (Homo sapiens, UniProt O95390); test: HepG2 reporter gene assay, Evaluation Procedure (2): 2-concentrations assay, GDF-11 inhibition; assay type: cell-based; conditions: GDF-11 10 ng/mL; for inhibition at 0.03 µM: HepG2, peptide 30nM, read-out: GDF11 Inhibition 30nM; for inhibition at 0.1 µM: HepG2, peptide 100nM, read-out: GDF11 Inhibition 100nM
T1 construct: purchased R&D systems 1958-GD-G8/CF
T1 sequence (O95390 299-407): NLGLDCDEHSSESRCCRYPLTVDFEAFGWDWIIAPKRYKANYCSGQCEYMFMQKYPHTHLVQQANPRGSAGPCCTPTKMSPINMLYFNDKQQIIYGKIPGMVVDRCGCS
Procedure, shortened: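 HepG2 cells carrying the transfected pGL3(CAGA)12-luc reporter, a pGL3 vector with luciferase placed downstream of 12 CAGA repeats, were stimulated with GDF-11 at a final 10 ng/mL together with test peptide. Blank wells received no GDF-11 and no peptide. Plates were incubated 20 to 24 hours at 37°C with 5% CO2. Luminescence from One-Glo substrate was read to calculate percent inhibition.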

[2] = target: T2, Myostatin (Homo sapiens, UniProt O14793); test: HepG2 reporter gene assay, Evaluation Procedure (2): 2-concentrations assay, myostatin inhibition; assay type: cell-based; conditions: Myostatin 10 ng/mL, HepG2; for inhibition at 0.03 µM: peptide 30nM, read-out: Myostatin Inhibition 30nM; for inhibition at 0.1 µM: peptide 100nM, read-out: Myostatin Inhibition 100nM
T2 construct: active myostatin (also called mature myostatin) is a homodimer consisting of two C-terminal growth factor domains; purchased R&D systems 788-G8/CF
T2 sequence (O14793 267-375): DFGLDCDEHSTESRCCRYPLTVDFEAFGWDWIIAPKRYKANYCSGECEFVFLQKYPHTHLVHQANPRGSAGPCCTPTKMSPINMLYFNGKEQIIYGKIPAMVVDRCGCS
Procedure, shortened: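 HepG2 cells (HB-8065, ATCC) carrying the transfected pGL3(CAGA)12-luc reporter plasmid were treated with myostatin (788-G8/CF, R&D systems) at a final concentration of 10 ng/mL plus peptide and incubated at 37°C, 5% CO2 for 20 to 24 hours. Luminescence was read after adding PBS mixed 1:1 with One-Glo substrate, and inhibition rate was calculated.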

| Compound | inhibition at 0.03 µM [1] | inhibition at 0.1 µM [1] | inhibition at 0.03 µM [2] | inhibition at 0.1 µM [2] |
| --- | --- | --- | --- | --- |
| CCCCCCC[C@@H]1NC(=O)[C@H](Cc2ccccc2)N(C)C(=O)[C@H](CCCNC(=N)N)NC(=O)[C@H](Cc2ccc(C(=O)O)cc2)NC(=O)[C@H](CCCCNC(=O)N2CCN(CC(=O)O)CC2)NC(=O)CN(CC)C(=O)[C@H]([C@@H](C)CC)NC(=O)[C@H](CC2CCCCC2)N(C)C(=O)[C@H](Cc2ccc(O)cc2)NC(=O)[C@H](Cc2c[nH]c3ccccc23)NC(=O)[C@@H](CCC(=O)O)NC(=O)[C@H](C)NC(=O)CSC[C@H](C(=O)N2CCN(CC(=O)O)CC2)NC(=O)[C@H](Cc2ccccc2)N(C)C(=O)[C@H](C)N(C)C1=O [Myostatin_99_v258] ({CH2CO}-A[dE]WY[NMeCha]I[NEtG]K([CO-Piperazinyl(4-CH2COOH)])[Phe(4-COOH)]R[NMeF][X1][NMeA][NMeF][dC]-{Piperazinyl(4-CH2COOH)}; thioether N-15) | 0% | 0% | 21% | 61% |
| CCCCCCCCCC[C@@H]1NC(=O)[C@H](CC2CCCCC2)NC(=O)[C@H](CCCNC(=N)N)NC(=O)[C@H](Cc2ccc(C(=O)O)cc2)NC(=O)[C@H](Cc2cccc(OCC(=O)O)c2)NC(=O)CN(C)C(=O)[C@H]([C@@H](C)CC)NC(=O)[C@H](Cc2ccccc2)N(C)C(=O)[C@H](Cc2ccc(O)cc2)NC(=O)[C@H](Cc2c[nH]c3ccccc23)NC(=O)[C@H](C)NC(=O)[C@H](CCCCNC(=O)N2CCN(CC(=O)O)CC2)NC(=O)CSC[C@H](C(=O)N2CCN(CC(=O)O)CC2)NC(=O)[C@H](Cc2ccccc2)N(C)C(=O)[C@H](C)N(C)C1=O [Myostatin_99_v259] ({CH2CO}-K([CO-Piperazinyl(4-CH2COOH)])AWY[NMeF]I[Sar][Phe(3-OCH2COOH)][Phe(4-COOH)]R[Cha][Gly(decyl)][NMeA][NMeF][dC]-{Piperazinyl(4-CH2COOH)}; thioether N-15) | 0% | 28% | 100% | 100% |
| CCCCCCCCCC[C@@H]1NC(=O)[C@H](CC2CCCCC2)NC(=O)[C@H](CCCNC(=N)N)NC(=O)[C@H](Cc2ccc(C(=O)O)cc2)NC(=O)[C@H](Cc2cccc(OCC(=O)O)c2)NC(=O)CN(C)C(=O)[C@H]([C@@H](C)CC)NC(=O)[C@H](Cc2ccccc2)N(C)C(=O)[C@H](Cc2ccc(O)cc2)NC(=O)[C@H](Cc2c[nH]c3ccccc23)NC(=O)[C@@H](CCCCNC(=O)N2CCN(CC(=O)O)CC2)NC(=O)[C@H](C)NC(=O)CSC[C@H](C(=O)N2CCN(CC(=O)O)CC2)NC(=O)[C@H](Cc2ccccc2)N(C)C(=O)[C@H](C)N(C)C1=O [Myostatin_99_v260] ({CH2CO}-A[dK]([CO-Piperazinyl(4-CH2COOH)])WY[NMeF]I[Sar][Phe(3-OCH2COOH)][Phe(4-COOH)]R[Cha][Gly(decyl)][NMeA][NMeF][dC]-{Piperazinyl(4-CH2COOH)}; thioether N-15) | 37% | 75% | 100% | 100% |
| CCCCCCCCCC[C@@H]1NC(=O)[C@H](Cc2ccccc2)N(C)C(=O)[C@H](CCCNC(=N)N)NC(=O)[C@H](Cc2ccc(C(=O)O)cc2)NC(=O)[C@H](Cc2cccc(OCC(=O)O)c2)NC(=O)CN(C)C(=O)[C@H]([C@@H](C)CC)NC(=O)[C@H](Cc2ccccc2)N(C)C(=O)[C@H](Cc2ccc(O)cc2)NC(=O)[C@H](Cc2c[nH]c3ccccc23)NC(=O)[C@H](C)NC(=O)[C@H](CCCCNC(=O)N2CCN(CC(=O)O)CC2)NC(=O)CSC[C@H](C(=O)N2CCN(CC(=O)O)CC2)NC(=O)[C@H](Cc2ccccc2)N(C)C(=O)[C@H](C)N(C)C1=O [Myostatin_99_v263] ({CH2CO}-K([CO-Piperazinyl(4-CH2COOH)])AWY[NMeF]I[Sar][Phe(3-OCH2COOH)][Phe(4-COOH)]R[NMeF][Gly(decyl)][NMeA][NMeF][dC]-{Piperazinyl(4-CH2COOH)}; thioether N-15) | 8% | 56% | 100% | 100% |

Now from value to compound:

| inhibition at 0.03 µM [1] | inhibition at 0.1 µM [1] | inhibition at 0.03 µM [2] | inhibition at 0.1 µM [2] | Compound |
| --- | --- | --- | --- | --- |
| 24% | 72% | 100% | 100% | CCCCCCCCCC[C@@H]1NC(=O)[C@H](Cc2ccccc2)N(C)C(=O)[C@H](CCCNC(=N)N)NC(=O)[C@H](Cc2ccc(C(=O)O)cc2)NC(=O)[C@H](Cc2cccc(OCC(=O)O)c2)NC(=O)CN(C)C(=O)[C@H]([C@@H](C)CC)NC(=O)[C@H](Cc2ccccc2)N(C)C(=O)[C@H](Cc2ccc(O)cc2)NC(=O)[C@H](Cc2c[nH]c3ccccc23)NC(=O)[C@@H](CCCCNC(=O)N2CCN(CC(=O)O)CC2)NC(=O)[C@H](C)NC(=O)CSC[C@H](C(=O)N2CCN(CC(=O)O)CC2)NC(=O)[C@H](Cc2ccccc2)N(C)C(=O)[C@H](C)N(C)C1=O [Myostatin_99_v264] ({CH2CO}-A[dK]([CO-Piperazinyl(4-CH2COOH)])WY[NMeF]I[Sar][Phe(3-OCH2COOH)][Phe(4-COOH)]R[NMeF][Gly(decyl)][NMeA][NMeF][dC]-{Piperazinyl(4-CH2COOH)}; thioether N-15) |
| 24% | 64% | 100% | 100% | CCCCCCCCCC[C@@H]1NC(=O)[C@H](CC2CCCCC2)NC(=O)[C@H](CCCNC(=N)N)NC(=O)[C@H](Cc2ccc(C(=O)O)cc2)NC(=O)[C@H](CCCCNC(=O)N2CCN(CC(=O)O)CC2)NC(=O)CN(C)C(=O)[C@H]([C@@H](C)CC)NC(=O)[C@H](Cc2ccccc2)N(C)C(=O)[C@H](Cc2ccc(O)cc2)NC(=O)[C@H](Cc2c[nH]c3ccccc23)NC(=O)[C@H](C)NC(=O)[C@H](CCCCNC(=O)N2CCN(CC(=O)O)CC2)NC(=O)CSC[C@H](C(=O)N2CCN(CC(=O)O)CC2)NC(=O)[C@H](Cc2ccccc2)N(C)C(=O)[C@H](C)N(C)C1=O [Myostatin_99_v267] ({CH2CO}-K([CO-Piperazinyl(4-CH2COOH)])AWY[NMeF]I[Sar]K([CO-Piperazinyl(4-CH2COOH)])[Phe(4-COOH)]R[Cha][Gly(decyl)][NMeA][NMeF][dC]-{Piperazinyl(4-CH2COOH)}; thioether N-15) |
| 65% | 92% | 100% | 100% | CCCCCCCCCC[C@@H]1NC(=O)[C@H](CC2CCCCC2)NC(=O)[C@H](CCCNC(=N)N)NC(=O)[C@H](Cc2ccc(C(=O)O)cc2)NC(=O)[C@H](CCCCNC(=O)N2CCN(CC(=O)O)CC2)NC(=O)CN(C)C(=O)[C@H]([C@@H](C)CC)NC(=O)[C@H](Cc2ccccc2)N(C)C(=O)[C@H](Cc2ccc(O)cc2)NC(=O)[C@H](Cc2c[nH]c3ccccc23)NC(=O)[C@@H](CCCCNC(=O)N2CCN(CC(=O)O)CC2)NC(=O)[C@H](C)NC(=O)CSC[C@H](C(=O)N2CCN(CC(=O)O)CC2)NC(=O)[C@H](Cc2ccccc2)N(C)C(=O)[C@H](C)N(C)C1=O [Myostatin_99_v268] ({CH2CO}-A[dK]([CO-Piperazinyl(4-CH2COOH)])WY[NMeF]I[Sar]K([CO-Piperazinyl(4-CH2COOH)])[Phe(4-COOH)]R[Cha][Gly(decyl)][NMeA][NMeF][dC]-{Piperazinyl(4-CH2COOH)}; thioether N-15) |
| 3% | 59% | 100% | 100% | CCCCCCCCCC[C@@H]1NC(=O)[C@H](CC2CCCCC2)NC(=O)[C@H](CCCNC(=N)N)NC(=O)[C@H](Cc2ccc(C(=O)O)cc2)NC(=O)[C@H](CCCCNC(=O)N2CCN(CC(=O)O)CC2)NC(=O)CN(C)C(=O)[C@H]([C@@H](C)CC)NC(=O)[C@H](Cc2ccccc2)N(C)C(=O)[C@H](Cc2ccc(O)cc2)NC(=O)[C@H](Cc2c[nH]c3ccccc23)NC(=O)[C@H](C)NC(=O)[C@H](C)NC(=O)CSC[C@H](C(=O)N2CCN(CC(=O)O)CC2)NC(=O)[C@H](Cc2ccccc2)N(C)C(=O)[C@H](CCC(=O)O)N(C)C1=O [Myostatin_99_v269] ({CH2CO}-AAWY[NMeF]I[Sar]K([CO-Piperazinyl(4-CH2COOH)])[Phe(4-COOH)]R[Cha][Gly(decyl)][NMeE][NMeF][dC]-{Piperazinyl(4-CH2COOH)}; thioether N-15) |
| 0% | 0% | 93% | 99% | CCCCCCC[C@@H]1NC(=O)[C@H](Cc2ccccc2)N(C)C(=O)[C@H](CCCNC(=N)N)NC(=O)[C@H](Cc2ccc(C(=O)O)cc2)NC(=O)[C@H](Cc2cccc(OCC(=O)O)c2)NC(=O)CN(C)C(=O)[C@H]([C@@H](C)CC)NC(=O)[C@H](Cc2ccccc2)N(C)C(=O)[C@H](Cc2ccc(OCCN)cc2)NC(=O)[C@H](Cc2c[nH]c3ccccc23)NC(=O)[C@H](C)NC(=O)[C@H](C)NC(=O)CSC[C@H](C(=O)N2CCN(CC(=O)O)CC2)NC(=O)[C@H](Cc2ccccc2)N(C)C(=O)[C@H](C)N(C)C1=O [Myostatin_99_v299] ({CH2CO}-AAW[AEF][NMeF]I[Sar][Phe(3-OCH2COOH)][Phe(4-COOH)]R[NMeF][X1][NMeA][NMeF][dC]-{Piperazinyl(4-CH2COOH)}; thioether N-15) |
